Experimental data published in publication PMC6154679, “Nine Different Chemical Species and Action Mechanisms of Pancreatic Lipase Ligands Screened Out from Forsythia suspensa Leaves All at One Time” (Molecules : A Journal of Synthetic Chemistry and Natural …, 2017).

Target: T1, pancreatic lipase (PL) (Sus scrofa, UniProt P00591)
T1 construct: gene PNLIP
T1 sequence (P00591 1-450): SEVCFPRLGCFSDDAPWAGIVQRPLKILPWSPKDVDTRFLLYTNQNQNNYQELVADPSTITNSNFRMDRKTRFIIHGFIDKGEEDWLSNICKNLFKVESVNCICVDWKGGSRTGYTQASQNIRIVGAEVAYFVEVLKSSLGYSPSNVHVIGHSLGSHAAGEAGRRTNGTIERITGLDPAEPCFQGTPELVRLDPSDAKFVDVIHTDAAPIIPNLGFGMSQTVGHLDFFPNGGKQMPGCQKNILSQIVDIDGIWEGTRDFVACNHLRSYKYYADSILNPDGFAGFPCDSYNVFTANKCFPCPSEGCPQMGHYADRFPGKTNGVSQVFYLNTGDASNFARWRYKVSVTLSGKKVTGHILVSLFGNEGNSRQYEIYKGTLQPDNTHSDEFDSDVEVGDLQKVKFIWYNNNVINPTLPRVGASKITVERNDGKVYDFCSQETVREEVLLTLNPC
Assay: pNPB hydrolysis assay, inhibition rate at […]
Format: biochemical
Settings: read-out: % inhibition at 5 μg/mL

CCCCCCCCCCC[C@@H](C[C@@H]1OC(=O)[C@H]1CCCCCC)OC(=O)[C@H](CC(C)C)NC=O [Orlistat]
inhibition at 5 µg/mL: 58%
